In brackets after ≈: the same amount, converted by molar mass. A value given as a limit tells only on which side of the number the result lay.

Data set [1] addresses PI3-kinase p110-delta/p85-alpha (Homo sapiens, UniProt O00329). The experiment in a line: Inhibition of recombinant human His6-tagged PI3K p110delta/p85alpha using DiC8-PIP2 as substrate preincubated for 15 mins followed by substrate addition measured after 60 mins by ADP-Glo assay. The class given is protein-complex assay. A general note: In ADP-Glo the light output rises with the ADP produced.

For data set [2], the target named is PI3-kinase p110-alpha/p85-alpha (Homo sapiens, UniProt P42336). The experiment in a line: Inhibition of recombinant human His6-tagged PI3K p110alpha/p85alpha using DiC8-PIP2 as substrate preincubated for 15 mins followed by substrate addition measured after 60 mins by ADP-Glo assay. It counts as protein-complex assay.
Sequence of PI3-kinase p110-alpha/p85-alpha (P27986 whole entry): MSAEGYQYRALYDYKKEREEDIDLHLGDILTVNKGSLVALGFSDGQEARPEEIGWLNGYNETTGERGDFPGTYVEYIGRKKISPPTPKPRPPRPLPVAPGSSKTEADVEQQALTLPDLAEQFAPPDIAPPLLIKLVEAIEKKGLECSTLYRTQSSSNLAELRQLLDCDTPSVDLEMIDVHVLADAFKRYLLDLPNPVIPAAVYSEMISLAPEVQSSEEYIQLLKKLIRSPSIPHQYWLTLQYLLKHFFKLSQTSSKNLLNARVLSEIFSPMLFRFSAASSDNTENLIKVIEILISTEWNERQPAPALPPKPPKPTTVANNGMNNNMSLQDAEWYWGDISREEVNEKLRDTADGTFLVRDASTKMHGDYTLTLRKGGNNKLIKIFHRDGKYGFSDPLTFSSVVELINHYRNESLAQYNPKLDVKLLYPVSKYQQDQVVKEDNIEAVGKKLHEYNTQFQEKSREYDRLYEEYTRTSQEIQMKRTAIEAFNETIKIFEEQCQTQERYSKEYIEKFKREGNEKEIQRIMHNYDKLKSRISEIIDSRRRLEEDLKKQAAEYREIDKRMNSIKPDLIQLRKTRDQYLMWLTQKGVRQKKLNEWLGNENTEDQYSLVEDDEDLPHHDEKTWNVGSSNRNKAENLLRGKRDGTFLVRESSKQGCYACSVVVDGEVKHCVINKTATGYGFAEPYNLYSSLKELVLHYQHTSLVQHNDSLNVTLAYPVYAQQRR
Sequence of PI3-kinase p110-alpha/p85-alpha (P42336 whole entry): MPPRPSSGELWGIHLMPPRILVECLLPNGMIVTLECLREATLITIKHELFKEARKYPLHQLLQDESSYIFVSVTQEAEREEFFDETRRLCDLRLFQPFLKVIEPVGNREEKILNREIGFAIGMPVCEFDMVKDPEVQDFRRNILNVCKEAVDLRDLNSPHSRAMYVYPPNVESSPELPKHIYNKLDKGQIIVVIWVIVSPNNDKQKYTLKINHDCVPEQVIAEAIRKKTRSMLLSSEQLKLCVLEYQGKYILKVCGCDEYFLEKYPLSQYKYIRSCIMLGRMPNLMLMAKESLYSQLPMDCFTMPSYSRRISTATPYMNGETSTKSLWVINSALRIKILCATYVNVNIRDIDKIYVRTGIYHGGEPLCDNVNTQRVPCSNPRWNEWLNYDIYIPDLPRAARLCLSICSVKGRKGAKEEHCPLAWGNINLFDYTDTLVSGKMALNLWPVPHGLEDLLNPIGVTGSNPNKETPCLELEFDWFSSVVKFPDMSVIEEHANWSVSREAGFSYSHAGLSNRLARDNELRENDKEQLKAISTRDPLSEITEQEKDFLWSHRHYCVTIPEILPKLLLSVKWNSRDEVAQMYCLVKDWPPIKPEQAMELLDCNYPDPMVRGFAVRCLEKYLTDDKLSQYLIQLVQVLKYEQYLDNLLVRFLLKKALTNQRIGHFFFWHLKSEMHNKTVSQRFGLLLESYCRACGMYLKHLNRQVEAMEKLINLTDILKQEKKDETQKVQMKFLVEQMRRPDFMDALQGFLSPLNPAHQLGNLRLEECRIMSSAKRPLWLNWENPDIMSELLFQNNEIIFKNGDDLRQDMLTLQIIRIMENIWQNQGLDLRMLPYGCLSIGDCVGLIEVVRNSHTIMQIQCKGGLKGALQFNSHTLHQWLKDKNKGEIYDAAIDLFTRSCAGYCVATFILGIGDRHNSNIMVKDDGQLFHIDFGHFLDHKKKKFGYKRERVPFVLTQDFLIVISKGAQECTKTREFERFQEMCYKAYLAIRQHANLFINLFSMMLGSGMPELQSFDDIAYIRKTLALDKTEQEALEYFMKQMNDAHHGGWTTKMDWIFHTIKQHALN
For a further data set, the target named is PI3K p110 beta/p85 alpha (Homo sapiens, UniProt P42338). As to the kind of experiment: Inhibition of recombinant human His6-tagged PI3K p110beta/p85alpha using DiC8-PIP2 as substrate preincubated for 15 mins followed by substrate addition measured after 60 mins by ADP-Glo assay. It counts as protein-complex assay.
Sequence of PI3K p110 beta/p85 alpha (P27986 whole entry, the tested form may be a part, canonical isoform): as the sequence (P27986 whole entry) above
Sequence of PI3K p110 beta/p85 alpha (P42338 whole entry, the tested form may be a part, canonical isoform): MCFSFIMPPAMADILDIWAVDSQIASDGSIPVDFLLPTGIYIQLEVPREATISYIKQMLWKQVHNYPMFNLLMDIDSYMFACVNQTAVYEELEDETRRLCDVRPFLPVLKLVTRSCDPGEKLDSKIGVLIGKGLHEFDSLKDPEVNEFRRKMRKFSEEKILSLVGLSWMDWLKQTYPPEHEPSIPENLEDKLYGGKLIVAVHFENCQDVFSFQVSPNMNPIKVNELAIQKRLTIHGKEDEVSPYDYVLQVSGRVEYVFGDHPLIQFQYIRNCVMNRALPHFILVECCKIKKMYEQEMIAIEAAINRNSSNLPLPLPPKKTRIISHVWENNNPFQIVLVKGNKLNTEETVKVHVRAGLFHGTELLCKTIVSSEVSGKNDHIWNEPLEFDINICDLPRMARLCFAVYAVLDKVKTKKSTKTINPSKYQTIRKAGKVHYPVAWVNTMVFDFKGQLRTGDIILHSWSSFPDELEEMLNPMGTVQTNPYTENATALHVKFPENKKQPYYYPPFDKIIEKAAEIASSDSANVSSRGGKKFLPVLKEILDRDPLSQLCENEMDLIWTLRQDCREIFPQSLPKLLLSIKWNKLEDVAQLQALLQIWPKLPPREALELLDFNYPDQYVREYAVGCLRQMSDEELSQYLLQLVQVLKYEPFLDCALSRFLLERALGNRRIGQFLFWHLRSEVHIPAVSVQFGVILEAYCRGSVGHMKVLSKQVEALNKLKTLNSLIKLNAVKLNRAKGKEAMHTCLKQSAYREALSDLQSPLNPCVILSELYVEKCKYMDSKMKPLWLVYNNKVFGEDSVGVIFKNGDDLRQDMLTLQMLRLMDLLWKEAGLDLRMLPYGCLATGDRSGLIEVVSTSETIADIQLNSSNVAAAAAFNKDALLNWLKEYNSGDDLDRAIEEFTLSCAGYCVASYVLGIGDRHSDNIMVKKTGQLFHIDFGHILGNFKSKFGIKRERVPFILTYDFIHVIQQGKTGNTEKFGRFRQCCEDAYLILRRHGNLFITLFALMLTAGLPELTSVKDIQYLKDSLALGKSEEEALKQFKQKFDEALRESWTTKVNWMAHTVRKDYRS
Data set [3] addresses Phosphatidylinositol 4,5-bisphosphate 3-kinase catalytic subunit gamma isoform (Homo sapiens, UniProt P48736). The experiment in a line: Inhibition of recombinant human His6-tagged PI3Kgamma (144 to 1102 residues) using DiC8-PIP2 as substrate preincubated for 15 mins followed by substrate addition measured after 60 mins by ADP-Glo assay.
Data set [4] concerns the target T1, Phosphatidylinositol 4,5-bisphosphate 3-kinase catalytic subunit delta isoform (Homo sapiens, UniProt O00329).
T1 sequence (O00329 whole entry): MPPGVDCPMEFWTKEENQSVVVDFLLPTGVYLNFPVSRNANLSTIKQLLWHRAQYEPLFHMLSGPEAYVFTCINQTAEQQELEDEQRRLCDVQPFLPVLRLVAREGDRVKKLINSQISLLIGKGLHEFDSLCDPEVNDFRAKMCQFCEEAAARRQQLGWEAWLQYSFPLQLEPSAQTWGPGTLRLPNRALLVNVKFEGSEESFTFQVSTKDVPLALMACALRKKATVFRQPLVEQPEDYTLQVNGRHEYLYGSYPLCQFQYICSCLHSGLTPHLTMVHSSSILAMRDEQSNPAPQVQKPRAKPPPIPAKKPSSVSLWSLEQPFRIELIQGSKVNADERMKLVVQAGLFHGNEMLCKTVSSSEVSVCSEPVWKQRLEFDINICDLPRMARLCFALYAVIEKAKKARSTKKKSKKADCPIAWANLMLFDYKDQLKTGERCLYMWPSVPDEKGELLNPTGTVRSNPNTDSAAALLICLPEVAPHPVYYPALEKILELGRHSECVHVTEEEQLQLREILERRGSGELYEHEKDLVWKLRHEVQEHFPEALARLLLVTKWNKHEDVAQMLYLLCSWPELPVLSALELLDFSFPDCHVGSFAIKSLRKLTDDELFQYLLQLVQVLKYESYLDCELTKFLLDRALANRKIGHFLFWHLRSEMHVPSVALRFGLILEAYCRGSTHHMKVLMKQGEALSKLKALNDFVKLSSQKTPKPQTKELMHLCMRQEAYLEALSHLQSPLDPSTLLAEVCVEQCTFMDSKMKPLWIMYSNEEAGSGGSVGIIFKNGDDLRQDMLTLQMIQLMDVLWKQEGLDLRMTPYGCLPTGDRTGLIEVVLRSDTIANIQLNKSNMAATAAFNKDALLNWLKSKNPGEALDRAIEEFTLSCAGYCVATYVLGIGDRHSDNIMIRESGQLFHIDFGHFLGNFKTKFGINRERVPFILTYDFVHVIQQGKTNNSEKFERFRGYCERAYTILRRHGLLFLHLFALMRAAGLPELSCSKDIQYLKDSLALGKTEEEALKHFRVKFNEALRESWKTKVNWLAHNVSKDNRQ
As to the kind of experiment: Inhibition of PI3Kdelta in human JeKo1 cells assessed as reduction in Akt phosphorylation at Ser473 residue preincubated for 60 mins followed by Anti-IgM stimulation for 10 mins by TR-FRET assay. It counts as cell-based. (In general: TR-FRET usually uses a lanthanide donor and a delayed reading to cut background.)

A short description of data set [5]: Lipophilicity, log D of the compound. It counts as physicochemical. Conditions: octanol/water.
A short description of data set [6]: Terminal half life in it dosed rat lung by LC-MS/MS analysis. The class given is ADME, organism-based. Conditions: inhaled or intranasal, read-out: beta t1/2 (converted).
Data set [7] can be described thus: Metabolic stability in it dosed rat lungs assessed as compound remaining at 24 hrs post dose by LC-MS/MS analysis. To be noted: lung, inhaled or intranasal, read-out: Stability. The class given is ADME, organism-based.
Data set [8] is described as follows: Dissociation constant, acidic pKa of compound. It counts as physicochemical.
Data set [9] in a line: Dissociation constant, basic pKa of compound. It counts as physicochemical.
The target of the next data set is hERG (KCNH2) (Homo sapiens, UniProt Q12809). As to the kind of experiment: Inhibition of human ERG at 11 uM relative to control.
Data set [10] in a line: Clearance in iv dosed rat. It counts as ADME, organism-based. Conditions: in vivo.
A short description of data set [11]: Half life in iv or po dosed rat. To be noted: in vivo. It counts as ADME, organism-based.
A short description of data set [12]: Volume of distribution at steady state in iv or po dosed rat. The class given is ADME, organism-based. To be noted: in vivo, read-out: Vdss.
A short description of data set [13]: Oral bioavailability in rat. To be noted: in vivo. It counts as ADME, organism-based.
Another data set relates to Mus musculus. As to the kind of experiment: In vivo inhibition of PI3Kdelta in ovalbumin-sensitized OT-2 transgenic C57BL/6-Tg-(Tcratcrb)425Cbn/Crl mouse assessed as reduction in S6RP phosphorylation at Ser235/236 residues in bronchoalveolar lung lavage administered […] 18 hrs prior to anti-CD3 stimulation measured after 6 hrs. It counts as functional, organism-based.

Data set [14] can be described thus: Solubility of the compound. The class given is physicochemical.
Data set [15] in a line: Metabolic stability in it dosed rat lungs assessed as compound remaining at 4 hrs post dose by LC-MS/MS analysis. Conditions: lung, inhaled or intranasal, read-out: Stability. The class given is ADME, organism-based.
Data set [16] is described as follows: Metabolic stability in it dosed rat lungs assessed as compound remaining at 3 mins post dose by LC-MS/MS analysis. It counts as ADME, organism-based. To be noted: lung, inhaled or intranasal, read-out: Stability.

Sequence of PI3-kinase p110-delta/p85-alpha (P27986 whole entry, one chain of several): as the sequence (P27986 whole entry) above
Sequence of Phosphatidylinositol 4,5-bisphosphate 3-kinase catalytic subunit gamma isoform (P48736 whole entry, the tested form may be a part, canonical isoform): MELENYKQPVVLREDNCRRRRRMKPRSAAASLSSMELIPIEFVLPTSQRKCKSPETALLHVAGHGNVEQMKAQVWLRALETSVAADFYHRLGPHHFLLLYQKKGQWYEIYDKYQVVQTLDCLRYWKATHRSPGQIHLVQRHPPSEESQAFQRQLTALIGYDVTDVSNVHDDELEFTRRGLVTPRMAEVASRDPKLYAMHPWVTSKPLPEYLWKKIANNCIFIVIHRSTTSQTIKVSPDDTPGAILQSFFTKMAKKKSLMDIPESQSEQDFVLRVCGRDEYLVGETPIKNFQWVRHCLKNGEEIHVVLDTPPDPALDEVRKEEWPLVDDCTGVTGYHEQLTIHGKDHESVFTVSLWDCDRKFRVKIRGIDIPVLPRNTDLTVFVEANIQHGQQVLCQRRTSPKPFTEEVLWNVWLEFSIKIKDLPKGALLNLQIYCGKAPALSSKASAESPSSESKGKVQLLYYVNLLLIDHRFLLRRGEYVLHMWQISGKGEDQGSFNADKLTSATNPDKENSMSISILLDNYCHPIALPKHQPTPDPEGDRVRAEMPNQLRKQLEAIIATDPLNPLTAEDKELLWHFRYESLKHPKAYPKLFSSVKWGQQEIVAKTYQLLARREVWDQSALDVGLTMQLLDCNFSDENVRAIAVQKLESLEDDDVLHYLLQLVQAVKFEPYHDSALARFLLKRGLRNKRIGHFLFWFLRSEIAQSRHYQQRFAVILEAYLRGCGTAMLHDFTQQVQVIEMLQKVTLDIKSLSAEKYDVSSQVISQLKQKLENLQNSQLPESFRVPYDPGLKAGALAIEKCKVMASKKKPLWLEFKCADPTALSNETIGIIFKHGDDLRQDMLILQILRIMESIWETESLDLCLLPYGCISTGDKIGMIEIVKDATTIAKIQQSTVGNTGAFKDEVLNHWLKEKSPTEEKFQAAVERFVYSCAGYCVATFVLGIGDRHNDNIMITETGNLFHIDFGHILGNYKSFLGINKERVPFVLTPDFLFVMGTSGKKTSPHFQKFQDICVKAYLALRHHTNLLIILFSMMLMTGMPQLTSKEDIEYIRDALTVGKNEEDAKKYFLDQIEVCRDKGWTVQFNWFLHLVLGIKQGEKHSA

As to `Cc1csc2cc([C@H](C)Nc3ncnc(N)c3C#N)c(-c3cccc(CN4CCC(N(C)CC(C)C)CC4)c3)c(=O)n12`, the IC50 (commonly the midpoint of a concentration-inhibition curve) in data set [1] was 0.631 nM; in data set [2] it was ≥ 631 nM; at PI3K p110 beta/p85 alpha it was 79.4 nM; in [3], ≥ 200 nM; in data set [4], 1.26 nM. Besides, the logD (usually the decadic logarithm of the distribution of all forms, ionised or not, between an organic phase and buffer at a given pH) in data set [5] worked out at 1.7. The half-life in data set [6] was 9.9 h; in data set [11] it was 11 h. Further, in data set [7], the remaining at 24 h worked out at 2.8%. The pKa – broadly, the negative logarithm of the acid dissociation constant – stood at 9.7 in data set [8] and 6.8 in data set [9]. Also, the inhibition (in general, the drop in the measured response relative to a control, in per cent) at 11 µM at hERG (KCNH2) is < 20%. For the same molecule, the clearance (as a rule, the rate of elimination divided by the concentration) in [10] was 150 mL/min/kg. Besides, the Vd in data set [12] was determined as 88 L/kg. The bioavailability (as a rule, the share of a dose that reaches the circulation, judged against a reference dose that is usually intravenous) in data set [13] was < 1%. For the same molecule, in the data set with Mus musculus, the inhibition entry was “Dose-dependent effect”.

With `Cc1csc2cc([C@H](C)Nc3ncnc(N)c3C#N)c(-c3ccccc3)c(=O)n12`, the IC50 in data set [1] is 0.398 nM; in [2], 631 nM; at PI3K p110 beta/p85 alpha, 50.1 nM; in data set [3], 12.6 nM; in [4], 0.631 to 0.794 nM. The concentration in solution in [14] (solubility) was 77 µM (≈ 31 µg/mL). The logD in [5] stood at 2.7. Also, the half-life in data set [6] was < 0.1 h. Further, the remaining at 4 h in data set [15] is 0%. Moreover, the remaining at 24 h in [7] is 0%. Moreover, the remaining at 0.05 h in data set [16] stood at 2%.

With `Cc1csc2cc([C@H](C)Nc3ncnc(N)c3C#N)c(-c3cccc(CN4CCC(N(C)C)CC4)c3)c(=O)n12`, the IC50 in data set [1] is 0.501 nM; in [2], ≥ 631 nM; at PI3K p110 beta/p85 alpha, 63.1 nM; in data set [3], ≥ 200 nM; in [4] it was 10 nM. Besides, the logD in [5] was determined as 0.5. Moreover, the half-life in data set [6] was 23.2 h; in [11], 12 h. Besides, in data set [7], the remaining at 24 h was 4.8%. Moreover, the pKa was 9.5 in data set [8] and 6.5 in data set [9]. In addition, the inhibition at 11 µM against hERG (KCNH2) is < 20%. In data set [10], this molecule returned a clearance of 57 mL/min/kg. Also, in data set [12], the Vd came out at 12 L/kg. The bioavailability in data set [13] is < 1%. Moreover, the inhibition result in the data set on Mus musculus was “Dose-dependent effect”.

`Cc1csc2cc([C@H](C)Nc3ncnc(N)c3C#N)c(-c3cccc(CN(C)CC(C)C)c3)c(=O)n12`: the 50% inhibitory concentration (IC50) in data set [1] is 0.501 nM; in data set [2], 2000 nM; on PI3K p110 beta/p85 alpha, 100 nM; in data set [3] it was > 794 nM; in data set [4], 0.631 to 1.58 nM. Also, in [14], the concentration in solution (solubility) was 12 µM (≈ 6.02 µg/mL). This molecule also had a logD in data set [5] of 2.3. The remaining at 4 h in data set [15] was 0%. Further, the remaining at 24 h in data set [7] stood at 0%. The remaining at 0.05 h in data set [16] was determined as 6.5%.

Turning to `COCCNCc1cccc(-c2c([C@H](C)Nc3ncnc(N)c3C#N)cc3scc(C)n3c2=O)c1`, the IC50 is 0.631 nM in data set [1]; 1260 nM in data set [2]; 20 nM at PI3K p110 beta/p85 alpha; 398 nM in [3]; 2.51 nM in data set [4]. In data set [14], the solubility – broadly, how much of the substance goes into solution per volume – was > 1000 µM. This molecule also registered a logD in [5] of 0.7. Further, the half-life in data set [6] was 1.3 h. For the same molecule, the remaining at 4 h in data set [15] amounted to 0.8%. Besides, the remaining at 24 h in data set [7] was 0%.

The record behind these values is ChEMBL document CHEMBL4014331, “Design and Synthesis of Soluble and Cell-Permeable PI3Kδ Inhibitors for Long-Acting Inhaled Administration” (J Med Chem, 2017).
